Measured values from patent US6737383B1, “Herbicidal oxadiazolidines” (priority 1999, dated 2004).

Assays:
sugar beet = assay: Test B pre/postemergence sugar beet; format: in vivo, Beta vulgaris
Summary of the method: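 Herbicidal effect was estimated by eye on a ten-point control scale after plants spent twelve to sixteen days in a greenhouse following soil or foliar treatment. Foliar sprays targeted plants at one to four leaves; all doses were formulated in a non-phytotoxic solvent with surfactant.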

smallflower flatsedge = assay: Test B flood test smallflower flatsedge; format: in vivo, Cyperus difformis
Summary of the method: (§1)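 Each value is a visual injury score relative to controls, with 10 meaning complete control and 0 no effect. Evaluation took place twelve to sixteen days after the 2-leaf-stage plants were treated and kept in the greenhouse.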

duck salad = assay: Test B flood test duck salad; format: in vivo, Heteranthera limosa
Summary of the method: as §1

rice = assay: Test B flood test rice; format: in vivo, Oryza sativa
Summary of the method: as §1

bamyardgrass = assay: Test B flood test barnyardgrass; format: in vivo, Echinochloa crus-galli
Summary of the method: as §1

[1] = Preemergence, Rate 62 g/ha, scale of 0 to 10 where 0 is no effect and 10 is complete control
[2] = Preemergence, Rate 250 g/ha, scale of 0 to 10 where 0 is no effect and 10 is complete control
[3] = Preemergence, Rate 500 g/ha, scale of 0 to 10 where 0 is no effect and 10 is complete control
[4] = Rate 62 g/ha, Postemergence, scale 0 to 10 (0 no effect, 10 complete control)
[5] = Rate 125 g/ha, Postemergence, scale of 0 to 10 where 0 is no effect and 10 is complete control
[6] = Rate 250 g/ha, Postemergence, scale of 0 to 10 where 0 is no effect and 10 is complete control
[7] = Rate 62 g/ha, headed Pre-emergence (flood test species), scale 0 to 10 (0 no effect, 10 complete control)
[8] = Rate 125 g/ha, Pre-emergence, flood test species, scale 0 to 10 where 0 is no effect and 10 is complete control
[9] = Rate 250 g/ha, Pre-emergence, flood-test species, scale 0 to 10, 0 is no effect, 10 is complete control
[10] = Rate 500 g/ha, Pre-emergence, flood test species, scale 0 to 10 (0 no effect, 10 complete control)
[11] = Rate 500 g/ha, Postemergence, scale 0 to 10, 0 no effect, 10 complete control
[12] = Pre-emergence, Rate 1000 g/ha, scale 0 to 10 (0 no effect, 10 complete control)

SMILES | Sugarbeets plant response rating (sugar beet; [1]) | Sugarbeets plant response rating (0 to 10 scale) (sugar beet; Preemergence, Rate 125 g/ha) | Sugarbeets plant response rating (sugar beet; [2]) | Sugarbeets plant response rating (sugar beet; [3]) | Sugarbeets plant response rating (sugar beet; [4]) | Sugarbeets plant response rating (sugar beet; [5]) | Plant response rating, Sugarbeets (sugar beet; [6]) | S. Flatsedge plant response rating (smallflower flatsedge; [7]) | S. Flatsedge plant response rating (smallflower flatsedge; [8]) | S. Flatsedge plant response rating (smallflower flatsedge; [9]) | S. Flatsedge plant response rating (smallflower flatsedge; [10]) | Ducksalad plant response rating (duck salad; [8]) | Ducksalad plant response rating (duck salad; [9]) | Ducksalad plant response rating (duck salad; [10]) | Rice plant response rating (rice; [8]) | Rice plant response rating (rice; [9]) | Rice plant response rating (rice; [10]) | Barnyardgrass plant response rating (bamyardgrass; [8]) | Barnyardgrass plant response rating (bamyardgrass; [9]) | Barnyardgrass plant response rating (bamyardgrass; [10]) | further results
CC(C)n1c(=O)on(C(=O)N(c2ccc(Cl)cc2Cl)C2CCC2)c1=O [Compound 319] | 0 | 0 | 0 | 0 | 0 | 0 | 0 | 0 | 0 | 0 | 0 | 0 | 0 | 0 | 0 | 0 | 0 | 0 | 0 | 2 | Ducksalad plant response rating (duck salad; [7]): 0; Rice plant response rating (rice; [7]): 0; Barnyardgrass plant response rating (bamyardgrass; [7]): 0
C=CCn1c(=O)on(C(=O)N(c2ccc(Cl)cc2)C(C)C2CC2)c1=O (stereo not shown) [Compound 325] | 0 | 0 | 0 | 0 | 0 | 0 | 0 | 0 | 0 | 0 | 0 | 0 | 0 | 0 | 0 | 0 | 0 | 0 | 0 | 0 | Plant response rating, Sugarbeets (sugar beet; [11]): 0; Ducksalad plant response rating (duck salad; [7]): 0; Rice plant response rating (rice; [7]): 0; Barnyardgrass plant response rating (bamyardgrass; [7]): 0
CC(C)N(C(=O)n1oc(=O)n(-c2ccc3ccccc3c2)c1=O)c1ccc(Cl)cc1 [Compound 333] | 0 | 0 | 0 | 0 | 0 | – | – | – | 0 | 0 | 0 | 0 | 0 | 0 | 0 | 0 | 0 | 0 | 0 | 0 | Plant response rating, Sugarbeets (sugar beet; Postemergence, Rate 125 g/ha, scale 0 to 10, 0 is no effect, 10 is complete control): 0; Plant response rating, Sugarbeets (sugar beet; [11]): 0; S. Flatsedge plant response rating (smallflower flatsedge; [12]): 0; Ducksalad plant response rating (duck salad; [12]): 0; Rice plant response rating (rice; [12]): 0; Barnyardgrass plant response rating (bamyardgrass; [12]): 0
